The target of assay [1] is T1, hENPP2 (UniProtKB/SwissProt Sequence ref Q13822) (Homo sapiens (Human), UniProt Q13822). The assay can be described thus: FS3 hENPP2 assay (fluorogenic substrate FS-3). In kind it is biochemical. Conditions: hENPP2, FS-3 as substrate. The gist of the method:
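Compound dilutions (1/5 steps, top concentration as added 20 μM) were preincubated 30 min at room temperature with hENPP2 (0.4 or 0.64 μg/mL final) in pH 8.0 Tris buffer containing NaCl, KCl, MgCl2, CaCl2 and 0.1% fatty-acid-free BSA. FS-3 (0.75 μM as added) was then hydrolysed for 30 min at 30 °C, and fluorescence was read at 485/520 nm.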

The test system of another assay is recruited BALF cells. Put plainly: LPS induced lung inflammation model (in-LPS test). The format is in vivo, mouse. Particulars: versus inLPS Vehicle group. Here is the method: The aim of the assay is to assess the effect of a test compound in a mouse model of acute lung inflammation induced by intranasal instillation of LPS. The impact on the induced cells recruitment in lung is evaluated by measurement of white cells count in broncho-alveolar lavage (BAL) fluid with VetABC device (medical solution gmbh, Rothusstrasse 23, 6331 Hunenberg, Switzerland).
The animals (BALB/c J mice, 18-20 g) are obtained from Harlan Laboratories (Maison-Alfort, France). The animals are maintained on 12 hours light/dark cycle at 22° C. with ad libitum access to tap water and food. Litters are changed twice a week. For each tested compound, a group of 10 subjects is used. In addition to the test compound-treated groups, a vehicle+LPS control group (inLPS), a non-treated group (intact), and a positive control dexamethasone treated group (DEX) are used.
LPS is dissolved in saline solution in order to obtain a final 10 μg/50 μL solution for intranasal instillation, and administered at 50 μL/mouse by intranasal instillation.
The test compounds are prepared in 15 mL PEG200 (9 mL)/H2O (6 mL) to be dosed in a range of 0.3, 1, 3, 10, and 30 mg/kg, and then kept at room temperature in the dark, and are administered once (qd) or twice daily (bid) over 2 days.
Dexamethasone (10 mg/kg, bid, po) is used as a positive control.
On day 1, mice are anaesthetized by isoflurane inhalation. During breathing, LPS solution is instilled intra-nasally and mice are monitored until complete recovery from anaesthesia.
On day 2, mice are anaesthetized by intra-peritoneal injection (under a volume of 10 mL/kg) of anaesthetic solution (18 mL NaCl 0.9%+0.5 mL xylazine (5 mg/kg)+1.5 mL ketamine (75 mg/kg)).
The trachea is canulated with a catheter, and BAL is performed by 2×0.75 mL sterile PBS. The BAL fluid removed is shaked gently at room temperature before centrifugation at 1500 r.p.m. during 10 min at 4° C.
The supernatant is removed and the cell pellet is suspended in 200 μL of PBS, kept on ice and total cell count is processed with VetABC device. Finally, mice are sacrificed under anaesthesia.
For each readout, mean and sem are calculated. A difference statistically significant between intact or treated groups and inLPS Vehicle group is evaluated with Prism® software using a one-way ANOVA (for treatment groups) followed by a Student test. *: p<0.05; **: p<0.01; ***: p<0.001 versus inLPS Vehicle group.

Assay [2] concerns the target T1, hENPP2. The assay can be described thus: LPC hENPP2 assay (choline release, LPC as substrate). The format is biochemical. Summed up: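 Choline released from LPC by ENPP2 is quantified after stopping with stop-developer containing 0.6 U/mL choline oxidase, 0.6 U/mL peroxidase, 1.8 mM TOOS, 1.2 mM amino-antipyrine and 20 mM EGTA. Quinoneimine dye read at 555 nm after 30 min at room temperature.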

For another assay, the system named is LPA 18:2. The assay can be described thus: Rat whole blood (plasma) LPA assay. The format is biochemical. Here is the method:
Whole blood is collected from rats or mouse by exsanguinations on sodium heparin tube, then after centrifugation at 3000 rpm for 15 min at 4° C., plasma is stored at −80° C. Compounds are diluted in DMSO in concentration dependent manner then 0.5 μL are dispensed into 96-wells plate placed in ice. Plasma is defrosted on ice then 49.5 μL of plasma are added into the well containing 0.5 μL of compound (1% DMSO final). Plates are covered with a lid in polypropylene and incubated at +37° C., 5% CO2, for 2 h under gentle shaking (except controls which are stored at −20° C.).
At the end of the incubation, controls are defrosted in ice and transferred in the incubated plates for LC-MS/MS analysis with a non GLP-validated method. For the analysis, plasma proteins from a 10 μL incubated plates are precipitated with an excess of methanol containing the internal standard, LPA 17:0. After centrifugation, the corresponding supernatant is injected on a C18 column. Analytes are eluted out of the column under isocratic conditions. An API5500 QTRAP mass spectrometer (ABSciex™) is used for the detection of LPA 18:2. No calibration curve is prepared for LPA 18:2, however relative quantities are evaluated based on the peak area.

Assay [3] relates to cells recovered in the BALF. The assay can be described thus: Tobacco smoke (TS) model, lungs inflammatory cells recruitment. The format is in vivo, mouse. Particulars: TS-exposed mice. Here is the method: The aim of this experiment is to evaluate the efficacy and potency of a test compound administered p.o., once or twice daily on days 6 to 11, vs reference compounds, on pulmonary inflammation induced by 11 days of TS-exposure in female C57BL/6J mice, by assessing the effect of a test compound on the tobacco smoke induced recruitment of inflammatory cells to the lungs.
The test compounds are formulated in PEG200/0.5% methylcellulose (25/75, v/v) and are given at a dose volume of 10 mL/kg. Roflumilast and Dexamethasone are included as positive […] control, respectively. Each treatment group consists of 10 mice.
A first group of mice is subjected to daily TS-exposure for 5 consecutive days and sacrificed on the day 6, 24 h after the final TS-exposure.
A second group is exposed to air for 5 consecutive days (sham exposure) and sacrificed on the day 6, 24 h after the final air-exposure.
Compound and reference-treated groups are subjected to daily TS-exposure for 11 consecutive days and sacrificed on the day 12, 24 h after the final TS-exposure. Mice are dosed p.o. on days 6 to 11, twice daily, 1 h prior to and 6 h after each TS-exposure, with either vehicle, or the test compound at 3, 5, 10 or 30 mg/kg. Another group is dosed p.o. on days 6 to 11, once daily, 1 h prior to each TS-exposure, with either vehicle, or the test compound at a selected dose, for example 10 mg/kg.
An additional group is dosed p.o., once daily, on days 6 to 11, with roflumilast at 5 mg/kg, 1 h prior to each TS-exposure. Dexamethasone is dosed p.o., twice daily, on days 6 to 11, at 0.3 mg/kg, 1 h prior to and 6 h after each TS-exposure.
For each mouse, a BAL is performed using 0.4 mL of PBS. […]
The lungs are dissected out and the left lobes are removed, snap-frozen and stored at −80° C. […] Cell data are presented as individual data points for each animal and the mean value calculated for each group. […]
Percentage inhibitions for the cell data are calculated using the formula below: […]

Bounds are passed on as bounds.

As to `CCc1nc2ccc(N3CCN(CC(=O)N4CC[C@H](O)C4)CC3)nn2c1N(C)c1nc(-c2ccc(F)cc2)cs1` [Compound 34, (S)-2-(4-(2-ethyl-3-((4-(4-fluorophenyl)thiazol-2-yl)(methyl)amino)imidazo[1,2-b]pyridazin-6-yl)piperazin-1-yl)-1-(3-hydroxypyrrolidin-1-yl)ethanone], the results for the IC50 on hENPP2 [1] and at hENPP2 [2] were 0.01 to 25 nM and 100 to 500 nM, respectively. Moreover, in the assay with recruited BALF cells (10 mg/kg bid po), the “Effect significance on recruited BALF cells” value (shortened to “Effect significance”) is recorded as “* (*: p<0.05)”.
With `CCc1nc2ccc(C3CCN(CC(=O)N4CC(O)C4)CC3)nn2c1N(C)c1nc(-c2ccc(F)cc2)cs1` [Cpd 201, 2-(4-(2-ethyl-3-((4-(4-fluorophenyl)thiazol-2-yl)(methyl)amino)imidazo[1,2-b]pyridazin-6-yl)piperidin-1-yl)-1-(3-hydroxyazetidin-1-yl)ethanone], the IC50 was in the range of 0.01 to 25 nM against hENPP2 [1] and 100 to 500 nM on hENPP2 [2]. Also, the “Effect significance” value with recruited BALF cells (10 mg/kg bid po) is “** (**: p<0.01)”.
For the compound `CCc1nc2ccc(N3CCN(CC(=O)N(C)C)CC3)nn2c1N(C)c1nc(-c2ccc(F)cc2)cs1` [Cpd 42, 2-(4-(2-ethyl-3-((4-(4-fluorophenyl)thiazol-2-yl)(methyl)amino)imidazo[1,2-b]pyridazin-6-yl)piperazin-1-yl)-N,N-dimethylacetamide], the IC50 against hENPP2 [1] lay in the range of 0.01 to 25 nM; against hENPP2 [2], 100 to 500 nM; in the assay on LPA 18:2, 100 to 500 nM. In addition, the “Effect significance” value with recruited BALF cells (3 mg/kg bid po) and in the assay on recruited BALF cells (30 mg/kg bid po) was “*** (***: p<0.001)” in each case.
On to `CCc1nc2ccc(N3CCN(CC(=O)N(C)C)CC3)nn2c1N(C)c1nc(-c2ccc(F)cc2)c(C#N)s1` [Compound 44, 2-(4-(3-((5-cyano-4-(4-fluorophenyl)thiazol-2-yl)(methyl)amino)-2-ethylimidazo[1,2-b]pyridazin-6-yl)piperazin-1-yl)-N,N-dimethylacetamide], for which, in the assay with recruited BALF cells (3 mg/kg bid po), the “Effect significance” value was “** (**: p<0.01)”. On hENPP2 [2], this compound had an IC50 of 0.01 to 100 nM.
In the case of `CCc1nc2cnc(N3CCN(CC(=O)N4CC(O)C4)CC3)cn2c1N(C)c1nc(-c2ccc(F)cc2)c(C#N)s1` [Cpd 2, 2-((2-ethyl-6-(4-(2-(3-hydroxyazetidin-1-yl)-2-oxoethyl)piperazin-1-yl)imidazo[1,2-a]pyrazin-3-yl)(methyl)amino)-4-(4-fluorophenyl) thiazole-5-carbonitrile], the “number of cells recovered in the BALF (macrophage cells, epithelial cells, neutrophils)” value in assay [3] (3 mg/kg twice daily p.o.) and in assay [3] (10 mg/kg twice daily p.o.) was “significantly inhibited” each time. For the same compound, the IC50 is 100 to 500 nM against hENPP2 [2] and > 1000 nM in the assay with LPA 18:2.
On to `CCc1nc2cnc(N3CCN(CC(=O)N4CC(O)C4)CC3)cn2c1N(C)c1nc(-c2ccc(F)cc2C#N)cs1` [Cpd 16, 2-(2-((2-ethyl-6-(4-(2-(3-hydroxyazetidin-1-yl)-2-oxoethyl)piperazin-1-yl)imidazo[1,2-a]pyrazin-3-yl)(methyl)amino)thiazol-4-yl)-5-fluorobenzonitrile], for which the IC50 on hENPP2 [1] was 50 to 100 nM; against hENPP2 [2], > 1000 nM; with LPA 18:2, > 1000 nM.
`CCc1nc2ccc(N3CCN(CC(=O)N4CC[C@@H](O)C4)CC3)nn2c1N(C)c1nc(-c2ccc(F)cc2)cs1` [Cpd 33, (R)-2-(4-(2-ethyl-3-((4-(4-fluorophenyl)thiazol-2-yl)(methyl)amino)imidazo[1,2-b]pyridazin-6-yl)piperazin-1-yl)-1-(3-hydroxypyrrolidin-l-yl)ethanone]: the figures for the IC50 against hENPP2 [1] and against hENPP2 [2] were 0.01 to 25 nM and 100 to 500 nM, respectively. Besides, the “Effect significance” value in the assay with recruited BALF cells (10 mg/kg bid po) is on record as “** (**: p<0.01)”.
As to `CCc1nc2ccc(C3CCN(CC(=O)N4CC(O)C4)CC3)nn2c1N(C)c1ccnc(-c2ccc(F)cc2)n1` [Cpd 216, 2-(4-(2-ethyl-3-((2-(4-fluorophenyl)pyrimidin-4-yl)(methyl)amino)imidazo[1,2-b]pyridazin-6-yl)piperidin-1-yl)-1-(3-hydroxyazetidin-1-yl)ethanone], the IC50 is 0.01 to 25 nM against hENPP2 [1], 500 to 1000 nM on hENPP2 [2] and > 1000 nM in the assay on LPA 18:2.
On the same counts, the results for `CCc1nc2ccc(N3CCN(S(=O)(=O)CCCN(C)C)[C@H](CO)C3)nn2c1N(C)c1nc(-c2ccc(F)cc2)cs1` [Cpd 63, (S)-(1-(3-(dimethylamino)propylsulfonyl)-4-(2-ethyl-3-((4-(4-fluorophenyl)thiazol-2-yl)(methyl)amino)imidazo[1,2-b]pyridazin-6-yl)piperazin-2-yl)methanol] are 0.01 to 25 nM, 0.01 to 100 nM and 0.01 to 100 nM.
Taken in the same sequence, the figures for `CCc1nc2ccc(C3CCN(CC(=O)N4CC(O)C4)CC3)nn2c1N(C)c1ccc(C#N)c(-c2ccc(F)cc2)n1` [Cpd 218, 6-((2-ethyl-6-(1-(2-(3-hydroxyazetidin-1-yl)-2-oxoethyl)piperidin-4-yl)imidazo[1,2-b]pyridazin-3-yl)(methyl)amino)-2-(4-fluorophenyl) nicotinonitrile] were 0.01 to 25 nM, 100 to 500 nM and 100 to 500 nM.

Values taken from patent publication US9796719B2, “Compounds and pharmaceutical compositions thereof for the treatment of inflammatory disorders” (GALAPAGOS NV, priority 2013, dated 2017).
